Assays:
[1] = biological target: T1, GPR81 (Homo sapiens, UniProt Q9BXC0); test: HTRF assay for direct cAMP measurement; format: cell-based; details: CHO-K1 cells stably transfected with GPR81, forskolin-stimulated cAMP
T1 construct: expressed in transfected cells; host or cells: CHO-K1 (ATCC CCL-61), recombinant, stably transfected
Text: Compounds were screened for agonists of GPR81 (e.g., human GPR81) using an HTRF® assay for direct cAMP measurement (Gabriel et al, ASSAY and Drug Development Technologies, 1:291-303, 2003) and recombinant CHO-K1 cells stably transfected with GPR81. CHO-K1 cells were obtained from ATCC® (Manassas, Va.; Catalog #CCL-61). An agonist of GPR81 was detected in the HTRF® assay for direct cAMP measurement as a compound which decreased cAMP concentration. The HTRF® assay also was used to determine EC50 values for GPR81 agonists.
The HTRF® assay kit was purchased from Cisbio-US, Inc. (Bedford, Mass.; Catalog #62AM4PEC). The HTRF® assay supported by the kit is a competitive immunoassay between endogenous cAMP produced by the CHO-K1 cells and tracer cAMP labeled with the dye d2. The tracer binding is visualized by a monoclonal anti-cAMP antibody labeled with Cryptate. The specific signal (i.e., fluorescence resonance energy transfer, FRET) is inversely proportional to the concentration of unlabeled cAMP in the standard or sample.
The fluorescence ratio of the samples (test compound or compound buffer) was calculated and used to deduce respective cAMP concentrations by reference to the cAMP standard curve.
The HTRF® assay was carried out using a two-step protocol essentially according to the kit manufacturer's instructions, in 20 μL total volume per well in 384-well plate format (ProxiPlates; PerkinElmer, Fremont, Calif.; catalog #6008280). To each of the experimental wells was transferred 1000 recombinant CHO-K1 cells in 5 μL phosphate buffered saline containing calcium chloride and magnesium chloride (“PBS+”; Invitrogen, Carlsbad, Calif.; catalog #14040) supplemented with IBMX (100 μM) (phosphodiesterase inhibitors; Sigma-Aldrich, St. Louis, Mo.; catalog #I-5879), followed by test compound in 5 μL compound buffer (PBS+ supplemented with 10 μM forskolin (Sigma-Aldrich, St. Louis, Mo.; catalog #F-6886)). The plate was then incubated at room temperature for 1 hour. To each well was then added 5 μl cAMP-d2 conjugate in lysis buffer and 5 μL Cryptate conjugate in lysis buffer according to the kit manufacturer's instructions. The plate was then further incubated at room temperature for 1 hour, after which the assay plate was read.
HTRF® readout was accomplished using a PHERAstar (BMG LABTECH Inc., Durham, N.C.) or EnVision™ (PerkinElmer, Fremont Calif.) microplate reader.

[2] = tested on: Male C57/B16 mice; test: NEFA assay, circulating free fatty acids in mice; format: in vivo, mouse; details: FIG. 7
Description: (§1) The supplied standard was diluted with DI water to 1, 0.5, 0.25, 0.125, 0.0625, 0.03125. A water blank was also prepared. Serum samples and standards were dispensed (5 μl/well) to wells of a 96-well plate. Reagent A (100 μL) was added to each well and incubated for 10 minutes at 37° C. Reagent B (200 μL) was then added to each well and incubated for another 10 minutes at 37° C. After equilibration for 5 minutes at room temperature (about 25° C.), the abroad sorbance was measured on a plate reader at 550 nm.
Male C57/B16 mice (8-10 weeks old; about 23 g) were food deprived (by removing food pellets from the cage) for 5 hours with ad libitum access to water. Animals were then dosed with vehicle (5% HPBCD) or drug via intraperitoneal (IP) injection at the desired concentration in a volume of 10 mL/kg. After 30 minutes, mice were euthanized via CO2 asphyxiation and about 300 μl of blood were immediately collected by cardiac puncture. The blood was transferred to an Eppendorf tube and capped on ice. The blood was then centrifuged on a table top centrifuge (4000 rpm at 4° C. for 10 minutes). Serum was collected in a new microfuge tube and re-centrifuged (4000 rpm at 4° C. for 10 minutes). Serum samples were dispensed (5 μl/well) to wells of a 96-well plate.

[3] = biological target: T1, GPR81; test: GPR81 [35S]GTPγS binding assay; format: biochemical; details: membranes of CHO-K1 cells stably transfected with GPR81
Description: Compounds were screened for agonism of GPR81 (e.g. human GPR81) using a GTPγS binding assay and CHO-K1 cells stably transfected with GPR81.
GPR81 stably transfected CHO-K1 cells were grown in F-12 Kaighn's Modified Cell Culture Medium with 10% FBS, 2 mM L-glutamine, 1 mM sodium pyruvate and 400 μg/ml G418. For 15 cm^2 plates, cells were rinsed with 5 mL cold PBS and aspirated. Cold membrane scrape buffer (20 mM HEPES, 10 mM EDTA, pH 7.4) was added and cells were scraped off the plate and transferred to a 50 mL centrifuge tube. Cells were spun at 20,000 rpm for 17 minutes at 4° C. The supernatant was aspirated and the pellet was re-suspended in cold membrane wash buffer (30 mL, 20 mM HEPES, 0.1 mM EDTA, pH 7.4). Cells were spun at 20,000 rpm for 17 minutes at 4° C. The supernatant was aspirated away from the membrane pellet. The pellet may be frozen at −80° C. for later use or may be used immediately.
The membrane pellet was thawed (if frozen) on ice and homogenized briefly until in suspension using a polytron mixer (POLYTRON PT3100, probe PT-DA 3007/2 at setting of 7000 rpm). The membrane protein concentration was determined using a Bradford assay. The membrane protein was diluted to a protein concentration of 0.20 mg/mL in binding buffer (20 mM HEPES, pH 7.4, 100 mM NaCl, 10 mM MgCl2) for a final assay concentration of 5 μg/well. Compound plates to be screened were thawed (daughter plates with 5 μL compound@2 mM in 100% DMSO). The 2 mM compounds were diluted 1:50 with 245 μL GDP buffer (binding buffer plus GDP, Sigma-Aldrich Catalog #87127, ranging from 0.4 to 40 μM, made fresh before assay) to 40 μM in 2% DMSO. Compounds in GDP buffer (25 were added per well of a Scintistrip plate (Wallac Catalog #1450-501) and then 50 μL of membrane preparation (0.4 mg protein/mL) was added to each well. The plates were then covered with foil and incubated for 5-10 minutes at room temperature. Subsequently, 25 μL of diluted [^35S]GTPγS (Amersham Biosciences Catalog #SJ1320, about 2000 Ci/mmol (made by adding 5 μL [^35S]GTPγS stock into 10 ml binding buffer) was added to the wells. The plates were covered with foil and incubated on a shaker (Lab-Line model #1314, at setting of 4) for 60 minutes at room temperature. The assay was stopped by sealing the plates with plate covers and spinning the plates at 4000 rpm for 15 minutes at 22° C. The supernatant of each well was apirated using an eight-channel manifold and the plate was read in a Wallac Microbeta counter 1450 set up to detect ^35S.

[4] = tested on: rat epididymal adipocytes; test: Glycerol assay (rat adipocyte lipolysis); format: cell-based; details: rat epididymal adipocytes in vitro, FIG. 5
Description: Free glycerol was determined using a free glycerol reagent, Reagent A (Sigma). Adipocyte media (10 μL) was removed and replated in a flat-bottom 96-well plate. Reagent A (100 μL) was then added to each well. After 10-15 minutes, abroad sorbance was read at OD540 on a Spectramax 340PC microplate reader (Molecular Devices). The amount of glycerol released was calculated based on regression analysis of known glycerol concentrations using a glycerol standard (Sigma).
Epididymal fat pads were surgically removed from CO2-anesthetized male Sprague Dawley rats, weighing 300-500 g. The adipose tissue was minced and suspended in Krebroad s-Ringer bicarbonate HEPES buffer (containing […], […] (monobasic), […] MgSO4.7H2O, […] CaCl2, 1 mM NaHCO3, 3 mM HEPES, 200 nM adenosine, and 1% BSA) with 2.5 mg of collagenase (Sigma) per gram of tissue. The suspension was incubated in an orbital shaker at 37° C. for 40 minutes with constant agitation. Cells were then filtered through a 500 μm mesh filter. For each filter used, 10 mL of buffer was added to the cell suspension to aid with the filtration. Cells were spun at 1000 rpm for 1 minute. A glass Pasteur pipette was then used to remove all buffer remaining below the floating adipocyte layer. Approximately 30 mL of new buffer was then added to the adipocytes and they were incubated for 5 minutes at 37° C. […]

[5] = tested on: Male Sprague Dawley rats; test: NEFA assay, circulating free fatty acids in rats; format: in vivo, rat; details: after injection of 100 mpk, FIG. 6
Description: as §1
Male Sprague Dawley rats (10-12 weeks old) were obtained from Charles River Labroad s pre-cannulated with right jugular catheters for sample collection. Rats were food deprived overnight (by removing food pellets from the cage) for approximately 16 hours with ad libitum access to water. Canulae were flushed with saline to remove heparin and to clear the catheter line 30 minutes prior to the first (basal) sample collection. Basal samples were collected in a staggered dose manner (e.g. vehicle, high dose, low dose, low dose, high dose, and vehicle). Rats were injected per oral (PO), 2 mL/kg with 5% HPBCD (Hydroxypropyl-β-cyclodextrin) or with drug in 5% HPBCD. Blood (500-700 μl) was drawn via catheter at 10, 20, 40, 60, 120, and 240 minutes post dosing, and saline (about 200 μl) was infused into the catheter to ensure patency. […]

T1 sequence (Q9BXC0 whole entry): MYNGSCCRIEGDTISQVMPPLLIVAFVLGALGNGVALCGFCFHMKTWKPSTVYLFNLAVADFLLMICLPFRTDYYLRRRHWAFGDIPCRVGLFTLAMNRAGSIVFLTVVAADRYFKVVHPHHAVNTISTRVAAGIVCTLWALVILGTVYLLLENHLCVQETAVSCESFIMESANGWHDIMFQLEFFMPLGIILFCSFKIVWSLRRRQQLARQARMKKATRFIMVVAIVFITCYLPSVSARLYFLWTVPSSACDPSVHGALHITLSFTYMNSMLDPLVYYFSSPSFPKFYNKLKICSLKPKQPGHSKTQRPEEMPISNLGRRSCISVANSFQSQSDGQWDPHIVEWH

SMILES	EC50 [1]	EC50 [3]	other results
Oc1ccc2ncn(C3CCCCCC3)c2n1 [Compound 48, 3-Cycloheptyl-3H-imidazo[4,5-b]pyridin-5-ol]	0.35 µM		
Oc1ccc2ncn(-c3ccccc3C(F)(F)F)c2n1 [Compound 28, 3-(2-(Trifluoromethyl)phenyl)-3H-imidazo[4,5-b]pyridin-5-ol]			circulating free fatty acids [2]: significant decrease of circulating free fatty acids
Nc1nc2ccc(O)nc2n1-c1ccccc1 [Compound 9, 2-Amino-3-phenyl-3H-imidazo[4,5-b]pyridin-5-ol]	1.05 µM		
Oc1ccc2ncn(-c3cccc(Cl)c3F)c2n1 [Compound 50, 3-(3-Chloro-2-fluorophenyl)-3H-imidazo[4,5-b]pyridin-5-ol]	2.76 µM		
Oc1ccc2ncn(-c3ccc(Cl)cc3C(F)(F)F)c2n1 [Compound 56, 3-(4-Chloro-2-(trifluoromethyl)phenyl)-3H-imidazo[4,5-b]pyridin-5-ol]		1.39 µM	
Oc1ccc2ncn(C34CC5CC(CC(C5)C3)C4)c2n1 [Compound 114, 3-(Adamant-1-yl)-3H-imidazo[4,5-b]pyridin-5-ol]		0.0303 µM	
Oc1ccc2ncn(-c3ccccc3Cl)c2n1 [Compound 25, 3-(2-Chlorophenyl)-3H-imidazo[4,5-b]pyridin-5-ol]			inhibition of lipolysis [4]: inhibition of lipolysis; circulating free fatty acids [5]: significant decrease of circulating free fatty acids; circulating free fatty acids [2]: significant decrease of circulating free fatty acids
Oc1ccc2nc(Cl)n(C3CCCCC3)c2n1 [Compound 127, 2-Chloro-3-cyclohexyl-3H-imidazo[4,5-b]pyridin-5-ol]		0.0753 µM	
Oc1ccc2nc(Cl)n(-c3ccccc3C3CC3)c2n1 [Compound 133, 2-Chloro-3-(2-Cyclopropylphenyl)-3H-imidazo[4,5-b]pyridin-5-ol]		0.0815 µM	
Cc1c(F)cccc1-n1c(N)nc2ccc(O)nc21 [Compound 64, 2-Amino-3-(3-Fluoro-2-methylphenyl)-3H-imidazo[4,5-b]pyridin-5-ol]	2.33 µM		
